What all share (format): cell-based
The subject of one assay is DLD-1. Kind of assay: MTS assay (cell growth inhibition), DLD-1. The following applies: DLD-1 cells, 72 hours incubation with test compound; concentration not given. On the procedure:
(§1) Cells were maintained at 37° C., 5% CO2 in DMEM media supplemented with 1% fetal bovine serum, penicillin/streptomycin and fungizone (Invitrogen). Cells were seeded into 96-well tissue culture plates at 3000 per well and cultured at 37° C. for 18 hours. Test compounds were dissolved and diluted to 300× in DMSO then diluted 1:40 in DMEM. Cells were incubated with test compounds for 72 hours followed by incubation with tetrazolium compound (3-(4,5-dimethylthiazol-2-yl)-5-(3-carboxymethoxyphenyl)-2-(4-sulfophenyl)-2H-tetrazolium, inner salt; MTS) and the electron coupling reagent, phenazine methosulfate (PMS) for 4 hours. […] The ability of compounds to inhibit cell growth in this assay is correlated with the reduction of dehydrogenase enzyme activity found in metabolically active cells. The measurement of the absorbance of the formazan was assessed using an ENVISION™ (Perkin Elmer) microplate reader at 492 nm. The calculated IC50 value is the concentration of the test compound that causes a 50% decrease in the absorbance.
A general note: Tetrazolium assays rely on reduction of a dye to a coloured formazan, in cell work by metabolically active cells.

For a further assay, the system named is Kato III. Kind of assay: MTS assay (cell growth inhibition), Kato III. The following applies: Kato III cells, 72 hours incubation with test compound; concentration not given. On the procedure:
as §1

Another assay has as its system MDA-MB. Kind of assay: MTS assay (cell growth inhibition), MDA-MB. The settings on record: MDA-MB cells, 72 hours incubation with test compound; concentration not given. How it is done: as §1
In the next assay the test system is NCI-H1299. Kind of assay: MTS assay (cell growth inhibition), NCI-H1299. The settings on record: NCI-H1299 cells, 72 hours incubation with test compound; concentration not given. How it is done:
as §1

The next assay concerns PACA-2. Kind of assay: MTS assay (cell growth inhibition), PACA-2. The settings on record: PACA-2 cells, 72 hours incubation with test compound; concentration not given. On the procedure:
as §1

Another assay deals with PC-3. Kind of assay: MTS assay (cell growth inhibition), PC-3. The settings on record: PC-3 cells, 72 hours incubation with test compound; concentration not given. How it is done: as §1

The source of these data is patent US8906928B2, “Substituted pyrazolo-pyrrolo-pyridine-dione compounds” (ArQule, Inc., priority 2009, dated 2014).

SMILES strings stand for the structures.

As to `Cc1ccc2c(c1)N(CCN1C(=O)c3cnc4[nH]ncc4c3C1=O)C(C)(C)CC2C` (stereo not drawn) [Example 29, 7-[2-(2,2,4,7-tetramethyl-3,4-dihydroquinolin-1(2H)-yl)ethyl]pyrazolo[3,4-b]pyrrolo[3,4-d]pyridine-6,8(3H,7H)-dione], the “MTS CELL KILL DATA (% INHIBITION) DLD-1” value with DLD-1 is recorded as “C (C = <50% INHIBITION)”. Besides, in the assay on Kato III, the “MTS CELL KILL DATA (% INHIBITION) Kato III” value was “C (C = <50% INHIBITION)”. Besides, the “MTS CELL KILL DATA (% INHIBITION) MDA-MB” value with MDA-MB was “A (A = 80-100% INHIBITION)”. In the assay with NCI-H1299, the “MTS CELL KILL DATA (% INHIBITION) NCI-H1299” value was “C (C = <50% INHIBITION)”. Moreover, the “MTS CELL KILL DATA (% INHIBITION) PACA-2” value with PACA-2 is reported as “A (A = 80-100% INHIBITION)”. Also, the “MTS CELL KILL DATA (% INHIBITION) PC-3” value with PC-3 is reported as “A (A = 80-100% INHIBITION)”.
In the case of `O=C1c2cnc3[nH]ncc3c2C(=O)N1CCSc1nc2ccccc2s1` [Example 32, 7-[2-(1,3-benzothiazol-2-ylthio)ethyl]pyrazolo[3,4-b]pyrrolo[3,4-d]pyridine-6,8(3H,7H)-dione], the “MTS CELL KILL DATA (% INHIBITION) DLD-1” value in the assay on DLD-1 was “C (C = <50% INHIBITION)”. Besides, the “MTS CELL KILL DATA (% INHIBITION) Kato III” value in the assay on Kato III is on record as “B (B = 50-79% INHIBITION)”. The “MTS CELL KILL DATA (% INHIBITION) MDA-MB” value in the assay on MDA-MB is given as “C (C = <50% INHIBITION)”. Also, in the assay on NCI-H1299, the “MTS CELL KILL DATA (% INHIBITION) NCI-H1299” value is given as “C (C = <50% INHIBITION)”. Further, in the assay with PACA-2, the “MTS CELL KILL DATA (% INHIBITION) PACA-2” value is listed as “C (C = <50% INHIBITION)”. Besides, in the assay on PC-3, the “MTS CELL KILL DATA (% INHIBITION) PC-3” value was “A (A = 80-100% INHIBITION)”.
Regarding `COc1cc(Cl)ccc1CN1C(=O)c2cnc3[nH]ncc3c2C1=O` [Example 33, 7-(4-chloro-2-methoxybenzyl)pyrazolo[3,4-b]pyrrolo[3,4-d]pyridine-6,8(3H,7H)-dione], the “MTS CELL KILL DATA (% INHIBITION) DLD-1” value in the assay with DLD-1 is on record as “C (C = <50% INHIBITION)”. Also, the “MTS CELL KILL DATA (% INHIBITION) Kato III” value in the assay with Kato III is recorded as “C (C = <50% INHIBITION)”. Further, in the assay on MDA-MB, the “MTS CELL KILL DATA (% INHIBITION) MDA-MB” value is on record as “A (A = 80-100% INHIBITION)”. Moreover, in the assay on NCI-H1299, the “MTS CELL KILL DATA (% INHIBITION) NCI-H1299” value is on record as “C (C = <50% INHIBITION)”. For the same compound, the “MTS CELL KILL DATA (% INHIBITION) PACA-2” value in the assay with PACA-2 is “C (C = <50% INHIBITION)”. Further, the “MTS CELL KILL DATA (% INHIBITION) PC-3” value in the assay on PC-3 is on record as “C (C = <50% INHIBITION)”.
Turning to `O=C1c2cnc3[nH]ncc3c2C(=O)N1Cc1c(F)ccc(Cl)c1F` [Example 34, 7-(3-chloro-2,6-difluorobenzyl)pyrazolo[3,4-b]pyrrolo[3,4-d]pyridine-6,8(3H,7H)-dione], in the assay with DLD-1, the “MTS CELL KILL DATA (% INHIBITION) DLD-1” value is on record as “A (A = 80-100% INHIBITION)”. In addition, the “MTS CELL KILL DATA (% INHIBITION) Kato III” value in the assay with Kato III was “A (A = 80-100% INHIBITION)”. Besides, the “MTS CELL KILL DATA (% INHIBITION) MDA-MB” value in the assay on MDA-MB was “A (A = 80-100% INHIBITION)”. For the same compound, the “MTS CELL KILL DATA (% INHIBITION) NCI-H1299” value with NCI-H1299 is listed as “A (A = 80-100% INHIBITION)”. Further, the “MTS CELL KILL DATA (% INHIBITION) PACA-2” value in the assay on PACA-2 is “A (A = 80-100% INHIBITION)”. Further, in the assay on PC-3, the “MTS CELL KILL DATA (% INHIBITION) PC-3” value is reported as “A (A = 80-100% INHIBITION)”.
On to `O=C1c2cnc3[nH]ncc3c2C(=O)N1CC1C[C@H]2CC[C@@H]1C2` (stereo partly drawn) [Example 35, 7-[(1R,4S)-bicyclo[2.2.1]hept-2-ylmethyl]pyrazolo[3,4-b]pyrrolo[3,4-d]pyridine-6,8(3H,7H)-dione], for which, in the assay with DLD-1, the “MTS CELL KILL DATA (% INHIBITION) DLD-1” value is on record as “C (C = <50% INHIBITION)”. Besides, in the assay with Kato III, the “MTS CELL KILL DATA (% INHIBITION) Kato III” value was “C (C = <50% INHIBITION)”. Also, the “MTS CELL KILL DATA (% INHIBITION) MDA-MB” value with MDA-MB was “C (C = <50% INHIBITION)”. In addition, the “MTS CELL KILL DATA (% INHIBITION) NCI-H1299” value in the assay on NCI-H1299 is recorded as “C (C = <50% INHIBITION)”. Besides, in the assay on PACA-2, the “MTS CELL KILL DATA (% INHIBITION) PACA-2” value is recorded as “C (C = <50% INHIBITION)”. The “MTS CELL KILL DATA (% INHIBITION) PC-3” value with PC-3 was “C (C = <50% INHIBITION)”.
Consider `O=C1c2cnc3[nH]ncc3c2C(=O)N1CCc1ccncc1` [Example 36, 7-(2-pyridin-4-ylethyl)pyrazolo[3,4-b]pyrrolo[3,4-d]pyridine-6,8(3H,7H)-dione], for which the “MTS CELL KILL DATA (% INHIBITION) DLD-1” value in the assay on DLD-1 was “C (C = <50% INHIBITION)”. In addition, the “MTS CELL KILL DATA (% INHIBITION) Kato III” value with Kato III was “C (C = <50% INHIBITION)”. Also, the “MTS CELL KILL DATA (% INHIBITION) MDA-MB” value with MDA-MB is “A (A = 80-100% INHIBITION)”. In addition, in the assay with NCI-H1299, the “MTS CELL KILL DATA (% INHIBITION) NCI-H1299” value is listed as “C (C = <50% INHIBITION)”. In addition, the “MTS CELL KILL DATA (% INHIBITION) PACA-2” value in the assay on PACA-2 is on record as “B (B = 50-79% INHIBITION)”. For the same compound, the “MTS CELL KILL DATA (% INHIBITION) PC-3” value in the assay on PC-3 is listed as “A (A = 80-100% INHIBITION)”.
As to `O=C1c2cnc3[nH]ncc3c2C(=O)N1Cc1cccnc1` [Example 38, 7-(pyridin-3-ylmethyl)pyrazolo[3,4-b]pyrrolo[3,4-d]pyridine-6,8(3H,7H)-dione], the “MTS CELL KILL DATA (% INHIBITION) DLD-1” value with DLD-1 is given as “A (A = 80-100% INHIBITION)”. Also, in the assay on Kato III, the “MTS CELL KILL DATA (% INHIBITION) Kato III” value was “A (A = 80-100% INHIBITION)”. In addition, in the assay on MDA-MB, the “MTS CELL KILL DATA (% INHIBITION) MDA-MB” value is “A (A = 80-100% INHIBITION)”. For the same compound, the “MTS CELL KILL DATA (% INHIBITION) NCI-H1299” value with NCI-H1299 is “C (C = <50% INHIBITION)”. Moreover, the “MTS CELL KILL DATA (% INHIBITION) PACA-2” value in the assay on PACA-2 is recorded as “A (A = 80-100% INHIBITION)”. The “MTS CELL KILL DATA (% INHIBITION) PC-3” value with PC-3 was “C (C = <50% INHIBITION)”.
